According to article PMC9421654, “Discovery of Substituted Di(pyridin-2-yl)-1,2,4-thiadiazol-5-amines as Novel Macrofilaricidal Compounds for the Treatment of Human Filarial Infections” (Journal of Medicinal Chemistry, 2022):
pIC50: −log10 of the molar value. Converted amounts (≈) assume the structure as drawn. Where two headings read alike, the source gives them in different places.

Assays:
[1] = system: O. gutturosa adult male worms; assay: O. gutturosa adult worm ex vivo assay, MTT/formazan viability; type: cell-based, Onchocerca gutturosa; conditions: Onchocerca gutturosa, supplement; SD in brackets in the PDF table; read-out: O. gutturosa EC50 (uM) MTT viability inhibition
Experimental: (§1) Activity against O. gutturosa adult male worms was determined using reported procedures.[7] The EC50 values were calculated using Microsoft Office Excel (2010) data analysis software. The tested compound is considered active when a motility reduction of ≥50% is observed by comparison to the untreated controls. O. gutturosa adult male worms were obtained postmortem from freshly slaughtered cattle. The worms were dissected from the nuchal ligament connective tissues of naturally infected cattle in Gambia, West Africa; the material was purchased from the International Trypanotolerance Centre, Banjul, from local butchers for use in this study. The adult worms were transferred individually to each well of a sterile 24-well (2 mL) plate (Thermo Fisher Scientific, UK) and maintained for at least 24 h in culture before use. The medium used was a minimum essential medium (MEM) with Earl’s salts and L-glutamine (Life Technologies Ltd., UK) supplemented with 10% heat inactivated newborn calf serum (Life Technologies Ltd., UK), 200 units/mL penicillin, 200 μg/mL streptomycin, and 0.5 μg/mL amphotericin B (Life Technologies Ltd., UK). Only normally active worms were used for the test, and all assays were conducted at 37 °C and 5% CO2. The positive control drug used was Immiticide (melarsomine dihydrochloride, Merial, USA). Known amounts of compounds were solubilized in 1 mL of DMSO. All stock solutions were allowed to stand at room temperature prior to use. The test items (four worms/drug concentration) were compared to untreated controls (six worms) and the positive control (two worms/drug concentration). Drug efficacy was assessed by the measurement of mean worm motility scores on a scale of 0 (immotile) to 10 (maximum) every 24 h, terminating at 120 h, using an Olympus inverted microscope. The results are reported as a percentage of the maximum score obtainable (100%) by calculating the motility index scores. The test drug is considered active when a motility reduction of ≥50% is observed by comparison to the untreated controls. […] In addition, biochemical evaluation of worm viability was assessed using MTT/formazan colorimetry. The MTT assay was carried out after the last motility reading (120 h). Single intact worms were placed in each well of a 48-well plate (Thermo Fisher Scientific, UK) containing 0.5 mL of 0.5 mg/mL MTT (Sigma, UK) in PBS solution and then incubated for 30 min at 37 °C. The worms were removed, blotted carefully, and individually transferred to separate wells of a 96-well microtiter plate, each containing 200 μL of DMSO to solubilize the formazan. After 1 h, the plate was gently agitated to disperse the color evenly and the absorbance value (optical density, OD) of the resulting formazan solution was determined at 490 nm using an absorbance microplate reader (Biotek ELx800, Thermo Fisher Scientific, UK). The results are expressed as the mean OD per drug concentration. Inhibition of formazan formation is correlated with worm damage or death.

[2] = system: O. gutturosa adult male worms; assay: O. gutturosa adult worm ex vivo assay, motility; type: cell-based, Onchocerca gutturosa; conditions: Onchocerca gutturosa
Experimental: as §1
Data S1. Onchocerca gutturosa adult male worms EC 50 Curves
Plotted using Graph Pad Prism 7.03, least square original fit, sigmoidal, 4PL
The measurement of mean worm motility every 24 h, terminating at 120 h, serial 1 in 4 drug dilutions to find
activity endpoint and produce EC50 values (geomean, n=2) for motility reduction. (4 worms per drug […]

[3] = Liver S9 metabolic stability assay, rat; type: in vitro ADME; conditions: 3 μM, 60 min
Experimental: (§2) Liver S9 Metabolic Stability Assay: Incubations were performed at 37 °C in a Dubnoff Shaking water bath using 2 mL 96-well incubation plates. Rat and human S9 protein concentrations were 0.75 mg/ml and 1.2 mg/ml, respectively. The final concentrations of NADPH, UDPGA, and GSH were 1, 0.5, and 2.5 mM, and the final concentration of PAPS was 0.05 mg/ml. Substrate concentrations were 3µM, incubation time was 60 minutes, and all tests were done in triplicate. The incubation was conducted in 200 mM Tris buffer containing 2 mM magnesium chloride, pH=7.4 and the total incubation volume was 0.5 ml. Samples were analysed via LC-MS/MS and reported as percentage remaining after incubation for 60 minutes. […]

[4] = Liver S9 metabolic stability assay, human; type: in vitro ADME; conditions: 3 μM, 60 min
Experimental: as §2

[5] = biological target: T1, hERG potassium channels (KCNH2, expressed in HEK293 cells) (Homo sapiens, UniProt Q12809); assay: hERG inhibition; type: cell-based
T1 construct: expressed in transfected cells
T1 sequence (Q12809 whole entry): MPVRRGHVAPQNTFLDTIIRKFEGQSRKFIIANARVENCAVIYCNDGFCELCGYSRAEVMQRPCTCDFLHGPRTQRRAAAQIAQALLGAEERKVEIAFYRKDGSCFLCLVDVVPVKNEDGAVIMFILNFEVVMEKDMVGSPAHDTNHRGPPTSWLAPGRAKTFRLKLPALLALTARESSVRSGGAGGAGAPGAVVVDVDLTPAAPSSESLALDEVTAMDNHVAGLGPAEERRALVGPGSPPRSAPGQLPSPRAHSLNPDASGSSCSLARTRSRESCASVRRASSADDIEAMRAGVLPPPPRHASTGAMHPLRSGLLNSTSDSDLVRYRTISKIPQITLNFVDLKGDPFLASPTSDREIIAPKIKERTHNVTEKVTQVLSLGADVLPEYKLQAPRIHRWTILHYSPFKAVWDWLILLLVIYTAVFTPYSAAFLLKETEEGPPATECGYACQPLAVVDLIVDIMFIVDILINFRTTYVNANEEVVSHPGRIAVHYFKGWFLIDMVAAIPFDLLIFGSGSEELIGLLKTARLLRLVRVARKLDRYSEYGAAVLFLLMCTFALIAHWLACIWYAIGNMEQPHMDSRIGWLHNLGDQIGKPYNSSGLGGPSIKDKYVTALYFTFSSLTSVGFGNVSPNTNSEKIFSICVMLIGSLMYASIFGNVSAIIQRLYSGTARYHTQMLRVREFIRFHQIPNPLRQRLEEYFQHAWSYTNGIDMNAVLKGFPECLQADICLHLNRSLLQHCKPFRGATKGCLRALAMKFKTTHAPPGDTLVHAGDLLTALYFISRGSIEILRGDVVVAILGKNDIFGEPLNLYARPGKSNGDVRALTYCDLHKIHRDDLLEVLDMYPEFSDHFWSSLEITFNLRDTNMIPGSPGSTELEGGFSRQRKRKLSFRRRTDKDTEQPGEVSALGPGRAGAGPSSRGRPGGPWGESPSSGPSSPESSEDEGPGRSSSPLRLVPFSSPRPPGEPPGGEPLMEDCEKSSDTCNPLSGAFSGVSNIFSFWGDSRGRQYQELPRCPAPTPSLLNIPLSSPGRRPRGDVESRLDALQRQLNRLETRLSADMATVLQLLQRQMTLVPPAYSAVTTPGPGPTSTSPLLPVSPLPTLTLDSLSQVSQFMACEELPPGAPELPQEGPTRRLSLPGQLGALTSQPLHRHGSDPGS

[6] = LogD measurement (octanol-water); type: physicochemical
Experimental: LogD Measurement: Measurement of octanol-water distribution coefficient of samples using a […]
stock solutions for plating. Aqueous Phase: 100mM Buffer, pH=7.4 (0.1M Potassium phosphate buffer, diluted from Sigma 1M P3619-1GA to 0.1 M with MilliQ water), pH=2.2 (0.1M- NaCl pH adjusted with 0.1N HCL), pH=6.8 (0.1M - KH2PO4/K2HPO4), pH=5 (4 .04g of NaOH (Pellets), 8.65g of Glacial Acetic Acid, 11.874g of NaCl. In in 1 liter water. Adjusted to pH to 5 with either 1N NaOH or 1N HCl); Organic Phase: 1-Octanol (O021). Sample Concentration:
1000uM, […] 10 mM DMSO stock solution diluted in […] of organic Phase and […] of aqueous Phase. DMSO content: 10%. The controls were plated from the standard 10 mM DMSO stock and run on the standard concentration ([…]) range of the assay. Incubation time:
Sonication for 30 minutes followed by 24 hours shaking at 750 rpm in 96 deep well plate (VWR

[7] = Kinetic solubility measurement; type: physicochemical
Experimental: Kinetic Solubility Measurement: The standard kinetic solubility assay runs on […] concentration range using 10 mM DMSO stock solutions for plating. Single point calibration assay runs in duplicates. Concentration of standards: […] DMSO solutions prepared by diluting 10 mM stock, solution with DMSO. Concentration of samples: 200 µM, 4 µl 10 mM DMSO stock solution diluted with the appropriate buffer to […]. DMSO content:
2%. Buffers: pH=7.4 (0.1M Potassium phosphate buffer, diluted from Sigma 1M P3619-1GA to 0.1 M with MilliQ water), pH=2.2 (0.1M- NaCl pH adjusted with 0.1N HCL), pH=6.8 (0.1M - KH2PO4/K2HPO4), pH=5 (4 .04g of NaOH (Pellets), 8.65g of Glacial Acetic Acid, 11.874g of NaCl. In in 1 liter water. Adjusted to pH to 5 with either 1N NaOH or 1N HCl). The controls were plated from the standard 10 mM DMSO stock and run on the standard concentration (200µM) range of the assay. Incubation time: 24 hours shaking at […] in Millipore Multiscreen HTS filter plate for Aqueous Solubility Assay (MSSLBPC50), on room temperature.
After incubation time filtration with positive pressure manifold was performed. […]

THLE-2 cells = assay: THLE-2 cytotoxicity assay (ATP); conditions: Homo sapiens, THLE-2, read-out: THLE IC50
Experimental: In vitro cytotoxicity of select compounds was tested in a “normal” proliferating transformed human liver epithelial (THLE-2) cell line.[35] Compounds were incubated in THLE-2 cells for 24 and 72 h, and adenosine triphosphate (ATP) levels were used as an indicator of cell viability.
THLE-2 Cytotoxicity Assay: THLE-2 cells (ATCC, catalog #CRL-2706) were plated in LHC-8 Media (Invitrogen, catalog #12679015) supplemented with fetal bovine serum (GE, catalog #SH30088.03), 70 ng/mL phosphoethanolamine (Sigma, catalog #P0503), 5 ng/mL EGF (Sigma, catalog #E9644), 1X penicillin/streptomycin (Gibco, catalog #15140148), and 1X glutamine (Invitrogen, catalog #25030024) in 384-well clear-bottom, black walled plates at a density of 3750 cells/well (15μL/well). After plating, cells were incubated overnight at 37°C in an incubator with 5% CO2 and 90% humidity. Compounds were first serially diluted in dimethyl sulfoxide then diluted in LHC-8 media growth media to 2X concentration. Cells were dosed with 15μL of each dose for final concentrations between 0.01 – 300 μM. Cells were incubated with compounds for 24 or 72 hours. Cytotoxicity was determined with Cell Titer Glo Luminescent ATP Assay (Promega, catalog #G7573) according to the manufacturer’s instructions. Tamoxifen (Sigma, catalog #BC9353476) was used as a positive control. levels at each dose were normalized to that of cells dosed with dimethyl sulfoxide vehicle alone and IC50 values were calculated from non-linear regression fits of dose-response curves plotted

[8] = read-out: O. gutturosa EC50 μM (SD), ex vivo adult worm motility reduction, SD in brackets
[9] = read-out: O. gutturosa EC50 (uM) motility inhibition, supplement, SD in brackets in the PDF table
[10] = supplement, read-out: measured logD

| Structure (SMILES) | EC50 [1] | EC50 [2, 8] | EC50 [2, 9] | Rat S9 metabolic stability [3] | Human S9 metabolic stability [4] | pIC50 [5] | logD at 24 h ([6]; pH 7.4, read-out: logD) | logD at 24 h [6, 10] | solubility kinetic at 24 h ([7]; 10 mM DMSO stock solutions) | solubility kinetic at 24 h ([7]; supplement) | pIC50 ([5]; supplement) | pIC50 (THLE-2 cells) |
| --- | --- | --- | --- | --- | --- | --- | --- | --- | --- | --- | --- | --- |
| Cc1cccnc1Nc1nc(-c2ccc(OC3CCN(C4CC4)CC3(F)F)cn2)ns1 (centres unmarked) [Compound 20, 3-(5-((1-Cyclopropyl-3,3-difluoropiperidin-4-yl)oxy)pyridin-2-yl)-N-(3-methylpyridin-2-yl)-1,2,4-thiadiazol-5-amine] | 0.3 µM | 0.24 µM | 0.236 µM | 32 % remaining | 52 % remaining | < 4.52 | 2.8 | 2.8 | – | – | – | – |
| CC(=O)Nc1cccnc1Nc1nc(-c2ccc(OC(C)C)cn2)ns1 [Compound 46] | 1.37 µM | 1.27 µM | – | – | – | – | 2.4 | 2.4 | 29.4 µM (≈ 10.9 µg/mL) | 29.5 µM (≈ 10.9 µg/mL) | < 4.52 | – |
| COc1cccnc1Nc1nc(-c2ccc(OC(C)C)cn2)ns1 [Compound 28, 3-(5-Isopropoxypyridin-2-yl)-N-(3-methoxypyridin-2-yl)-1,2,4-thiadiazol-5-amine] | 0.62 µM | 0.08 µM | 0.076 µM | 100 % remaining | 100 % remaining | – | 1.7 | 1.7 | 7.25 µM (≈ 2.49 µg/mL) | – | – | 5.11 |
| Cc1cccnc1Nc1nc(-c2cc(C(=O)N(C)C)ccn2)ns1 [Compound 16] | 1.1 µM | 3.28 µM | – | 78 % remaining | 89 % remaining | – | 1.9 | 1.9 | 26.5 µM (≈ 9.02 µg/mL) | – | – | – |
| c1ccc(Nc2nc(-c3ccccn3)ns2)nc1 [Compound 9, N,3-Di(pyridin-2-yl)-1,2,4-thiadiazol-5-amine] | 1.1 µM | 0.16 µM | 0.155 µM | 83 % remaining | 83 % remaining | – | 1.8 | 1.8 | 8.2 µM (≈ 2.09 µg/mL) | – | – | – |
| Cc1nccnc1Nc1nc(-c2ccc(OC(C)C)cn2)ns1 [Compound 41, 3-(5-Isopropoxy-2-pyridyl)-N-(3-methylpyrazin-2-yl)-1,2,4-thiadiazol-5-amine] | < 0.19 µM | 0.06 µM | 0.058 µM | 100 % remaining | 94 % remaining | – | 2.7 | 2.7 | 24.5 µM (≈ 8.04 µg/mL) | – | – | – |
| Cc1cccnc1N(c1nc(-c2ccc(OC(C)C)cn2)ns1)C(C)C [Compound 43, 3-(5-Isopropoxypyridin-2-yl)-N-isopropyl-N-(3-methylpyridin-2-yl)-1,2,4-thiadiazol-5-amine] | 3.4 µM | 3.3 µM | – | 60 % remaining | 79 % remaining | – | 3.1 | 3.1 | 118 µM (≈ 43.6 µg/mL) | – | – | – |
| CC(C)Oc1cc(-c2nsc(Nc3ncccc3N(C)C)n2)ncc1C(F)(F)F [Compound 33] | 0.83 µM | 0.85 µM | 0.852 µM | 8 % remaining | 100 % remaining | – | 3 | 3 | 1.43 µM (≈ 0.607 µg/mL) | – | – | – |
| Cc1cccnc1Nc1nc(-c2cc(C#N)ccn2)ns1 [Compound 14] | 4.5 µM | 3.1 µM | – | 78 % remaining | 65 % remaining | – | 2 | 2 | 2.55 µM (≈ 0.751 µg/mL) | – | – | – |
| Cc1cccnc1Nc1nc(-c2cnc(OC(C)C)cn2)ns1 [Compound 39, 3-(5-Isopropoxypyrazin-2-yl)-N-(3-methyl-2-pyridyl)-1,2,4-thiadiazol-5-amine] | 1.1 µM | 0.29 µM | 0.286 µM | 74 % remaining | 81 % remaining | – | 3.1 | 3.1 | 2.1 µM (≈ 0.69 µg/mL) | – | – | – |
